# According to ChEMBL document CHEMBL1201862, “PubChem BioAssay data set” (2004):
# Calls of active or inactive are those of the source.
# Tests used:
# Cytochrome P450 1A2 = biological target: T1, Cytochrome P450 1A2 (Homo sapiens, UniProt P05177);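 also: PubChem cytochrome P450 panel assay, CYP1A2 panel member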
# T1 sequence (P05177 whole entry): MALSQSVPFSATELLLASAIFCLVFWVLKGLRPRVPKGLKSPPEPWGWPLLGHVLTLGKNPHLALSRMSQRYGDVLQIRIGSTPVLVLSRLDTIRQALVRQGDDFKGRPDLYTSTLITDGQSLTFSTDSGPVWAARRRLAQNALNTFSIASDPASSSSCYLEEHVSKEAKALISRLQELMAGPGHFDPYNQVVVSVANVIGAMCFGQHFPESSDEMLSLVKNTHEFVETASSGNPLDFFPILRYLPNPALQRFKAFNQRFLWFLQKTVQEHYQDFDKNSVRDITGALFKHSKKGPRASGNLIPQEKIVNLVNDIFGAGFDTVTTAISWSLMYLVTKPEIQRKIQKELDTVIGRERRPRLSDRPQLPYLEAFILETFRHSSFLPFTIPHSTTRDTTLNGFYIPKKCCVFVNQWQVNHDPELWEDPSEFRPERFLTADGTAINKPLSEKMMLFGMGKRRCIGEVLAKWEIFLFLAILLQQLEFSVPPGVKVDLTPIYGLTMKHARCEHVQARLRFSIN
# Cytochrome P450 2C9 = Cytochrome P450 2C9 (Homo sapiens, UniProt P11712)
# Cytochrome P450 2D6 [1] = biological target: T2, Cytochrome P450 2D6 (Homo sapiens, UniProt P10635);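 also: CYP2D6 member of a cytochrome P450 panel assay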
# Cytochrome P450 2D6 [2] = biological target: T2, Cytochrome P450 2D6; remark: listed apart in the source
# Cytochrome P450 3A4 = Cytochrome P450 3A4 (Homo sapiens, UniProt P08684);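 also: CYP3A4 tested as one member of a cytochrome P450 panel screen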
# [3] = viability of uninfected HEp-2 cells – cell-based, HTS, cytotoxicity control for RSV inhibitor project, dose response (AID 2410); type: functional; conditions: human respiratory syncytial virus
# HeLa = test: ATP-based viability loss in HeLa cells – cell-based, CellTiter-Glo luminescence, cherry-pick samples, cytotoxicity control for MITF activator project, dose response (AID 540259); type: functional; conditions: Homo sapiens
# A-375 [4] = test: MITF: Counter assay: A375 proliferation Measured in Cell-Based System Using Plate Reader - 2084-03_Inhibitor_Dose_DryPowder_Activity. [Related pubchem assays (depositor defined):AID488944]; type: functional; conditions: Homo sapiens
# A-375 [5] = test: proliferation inhibition in MITF-low A375 cells – cell-based, cherry-pick samples, set 2, counter-screen for MITF modulator project, dose response (AID 540335); type: functional; conditions: Homo sapiens
# [6] = Luminescence Cell-Based Dose Response to Identify Activators of 5'UTR Stem-Loop Driven Prion Protein mRNA Translation in H4-C Neuroglioblastoma Cells. [Related pubchem assays: 1829 (Project Summary), 1814 (Primary HTS)]; type: functional
# [7] = Luminescence Cell-Based Dose Confirmation HTS to Identify Activators of 5'UTR Stem-Loop Driven Alpha-Synuclein mRNA Translation in H4 Neuroglioblastoma Cells. [Related pubchem assays: 1829 (Project Summary), 1814 (Primary HTS)]; type: functional
# [8] = Luminescence Cell-Based Dose Response HTS to Identify Activators of Luciferase Translation or Activity in H4 […] Cells. [Related pubchem assays: 1829 (Project Summary), 1814 (Primary HTS)]; type: functional
# H4 = test: Luminescence Cell-Based Dose Response HTS to Identify Activators of 5'UTR Stem-Loop Driven Prion Protein mRNA Translation in H4 Neuroglioblastoma Cells. [Related pubchem assays: 1829 (Project Summary), 1814 (Primary HTS)]; type: functional; conditions: Homo sapiens
# [9] = Luminescence Cell-Based Dose Response to Identify Activators of Luciferase Translation or Activity in H4-C Neuroglioblastoma Cells. [Related pubchem assays: 1829 (Project Summary), 1814 (Primary HTS)]; type: functional
# [10] = Luminescence Cell-Based Dose Confirmation to Identify Activators of 5'UTR Stem-Loop Driven Alpha-Synuclein mRNA Translation in H4 Neuroglioblastoma Cells. [Related pubchem assays: 1829 (Project Summary), 1814 (Primary HTS)]; type: functional
# HEK293 = test: cells; type: functional, cell-based; conditions: Homo sapiens
# [11] = biological target: T3, Nuclear receptor subfamily 0 group B member 1 (Homo sapiens, UniProt P51843); test: Luminescence-based cell-based high throughput dose response assay for inhibitors of the orphan nuclear receptor subfamily 0, group B, member 1 (DAX1; NR0B1). [Related pubchem assays (depositor defined):AID504766, AID504790]; type: functional
# T3 sequence (P51843 whole entry): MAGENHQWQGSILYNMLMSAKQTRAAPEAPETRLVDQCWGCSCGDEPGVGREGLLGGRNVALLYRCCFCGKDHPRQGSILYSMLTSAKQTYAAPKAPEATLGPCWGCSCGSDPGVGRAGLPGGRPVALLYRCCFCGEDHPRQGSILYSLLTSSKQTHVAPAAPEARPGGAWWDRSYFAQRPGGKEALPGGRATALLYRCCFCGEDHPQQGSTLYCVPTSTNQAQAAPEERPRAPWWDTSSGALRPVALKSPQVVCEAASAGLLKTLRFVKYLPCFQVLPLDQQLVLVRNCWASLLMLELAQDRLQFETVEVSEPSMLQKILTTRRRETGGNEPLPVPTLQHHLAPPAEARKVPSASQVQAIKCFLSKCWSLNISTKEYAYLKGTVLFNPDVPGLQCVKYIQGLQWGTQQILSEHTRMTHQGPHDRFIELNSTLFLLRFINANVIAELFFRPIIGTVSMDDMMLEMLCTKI
# [12] = luciferase reporter signal suppression in cells – H4 neuroglioma cells, luminescence, dose response (AID 1990); type: functional, cell-based
# [13] = Luminescence Cell-Based Dose Response HTS to Identify Inhibitors of 5'UTR Stem-Loop Driven Prion Protein mRNA Translation in H4 Neuroglioblastoma Cells. [Related pubchem assays: 1827 (Project Summary), 1813 (Primary HTS)]; type: functional
# [14] = alpha-synuclein stem-loop luciferase translation blockers – H4 neuroglioma cells, luminescence, confirmation (AID 1988); type: functional, cell-based
# Vero [15] = test: cells; type: functional, cell-based; conditions: Chlorocebus sabaeus
# Vero [16] = test: cells; type: functional; conditions: Chlorocebus sabaeus
# Cytochrome P450 2C19 = Cytochrome P450 2C19 (Homo sapiens, UniProt P33261); test: Cytochrome panel assay with activity outcomes. Panel member name: p450-cyp2c19 Compounds with AC50 equal or less than 10 uM are considered active; type: functional; conditions: read-out: AC50
# [17] = rise of 2N DNA cells, HeLa – IC50, dose response (AID 1117349); type: functional, cell-based
# [18] = CellTiter-Glo luminescence survival assay, SW480 colon tumor line, concentration-response curve, half-maximal inhibitory concentration (AID 1117338); type: functional
# [19] = RKO cell viability reduction, dose response, CellTiter-Glo luminescence (AID 1117322); type: functional
# [20] = cytotoxicity toward HCT116 cells – cell-based, CellTiter-Glo luminescence, IC50, dose response (AID 1117332); type: functional; conditions: HCT-116
# [21] = SNU-C1 cell viability reduction, dose response, CellTiter-Glo luminescence (AID 1117323); type: functional, cell-based
# [22] = rise of 4N DNA cells, HeLa – IC50, dose response (AID 1117351); type: functional, cell-based
# [23] = cytotoxicity toward HT-29 cells – cell-based, CellTiter-Glo luminescence, IC50, dose response (AID 1117330); type: functional
# [24] = Reduced DLD-1 viability, concentration-response, CellTiter-Glo luminescence (AID 1117352); type: functional
# [25] = HCT116 cell viability decrease, GSK3B pretreatment – CellTiter-Glo, IC50, dose response (AID 1117339); type: functional; conditions: HCT-116
# [26] = biological target: T4, RNA-binding protein pos-1 (Caenorhabditis elegans, UniProt G5EF15); test: disruptors of C. elegans POS-1 RNA interaction – biochemical, fluorescence polarization, dose response (AID 1964);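 also: purified POS-1 fused to maltose binding protein made in E. coli; potency of compounds blocking POS-1 binding to fluorescent RNA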
# T4 sequence (G5EF15 whole entry): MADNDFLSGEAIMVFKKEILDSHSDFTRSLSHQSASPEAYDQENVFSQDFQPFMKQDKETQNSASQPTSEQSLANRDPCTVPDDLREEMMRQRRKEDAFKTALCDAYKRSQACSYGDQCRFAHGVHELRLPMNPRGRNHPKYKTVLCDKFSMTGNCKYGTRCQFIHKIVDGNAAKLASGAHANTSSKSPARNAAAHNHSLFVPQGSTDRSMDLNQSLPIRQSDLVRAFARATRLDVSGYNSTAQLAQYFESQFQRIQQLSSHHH
# [27] = biological target: T5, Zinc finger protein mex-5 (Caenorhabditis elegans, UniProt Q9XUB2); test: potency of MEX-5 RNA-binding blockers – biochemical, C. elegans, fluorescence polarization, dose response (AID 1960)
# T5 sequence (Q9XUB2 whole entry): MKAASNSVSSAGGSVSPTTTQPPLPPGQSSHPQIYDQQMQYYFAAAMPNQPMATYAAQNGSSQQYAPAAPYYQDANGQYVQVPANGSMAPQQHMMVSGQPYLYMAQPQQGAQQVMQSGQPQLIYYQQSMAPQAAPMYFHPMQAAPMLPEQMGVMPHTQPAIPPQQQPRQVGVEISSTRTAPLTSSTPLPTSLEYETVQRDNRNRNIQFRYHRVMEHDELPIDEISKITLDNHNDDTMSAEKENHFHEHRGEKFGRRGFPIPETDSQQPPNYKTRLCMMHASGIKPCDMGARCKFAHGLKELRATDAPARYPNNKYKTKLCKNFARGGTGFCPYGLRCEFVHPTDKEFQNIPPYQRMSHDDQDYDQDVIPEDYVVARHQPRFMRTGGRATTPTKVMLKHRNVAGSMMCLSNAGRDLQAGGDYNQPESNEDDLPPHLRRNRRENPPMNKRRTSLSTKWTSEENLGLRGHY
# Keap1/Nrf2 = Keap1/Nrf2 (Homo sapiens, UniProt Q14145); test: disruptors of Keap1 binding to Nrf2 peptide – biochemical, fluorescence polarization, cherry-picked samples, dose response (AID 588683)
# Keap1/Nrf2, sequence (Q16236 whole entry): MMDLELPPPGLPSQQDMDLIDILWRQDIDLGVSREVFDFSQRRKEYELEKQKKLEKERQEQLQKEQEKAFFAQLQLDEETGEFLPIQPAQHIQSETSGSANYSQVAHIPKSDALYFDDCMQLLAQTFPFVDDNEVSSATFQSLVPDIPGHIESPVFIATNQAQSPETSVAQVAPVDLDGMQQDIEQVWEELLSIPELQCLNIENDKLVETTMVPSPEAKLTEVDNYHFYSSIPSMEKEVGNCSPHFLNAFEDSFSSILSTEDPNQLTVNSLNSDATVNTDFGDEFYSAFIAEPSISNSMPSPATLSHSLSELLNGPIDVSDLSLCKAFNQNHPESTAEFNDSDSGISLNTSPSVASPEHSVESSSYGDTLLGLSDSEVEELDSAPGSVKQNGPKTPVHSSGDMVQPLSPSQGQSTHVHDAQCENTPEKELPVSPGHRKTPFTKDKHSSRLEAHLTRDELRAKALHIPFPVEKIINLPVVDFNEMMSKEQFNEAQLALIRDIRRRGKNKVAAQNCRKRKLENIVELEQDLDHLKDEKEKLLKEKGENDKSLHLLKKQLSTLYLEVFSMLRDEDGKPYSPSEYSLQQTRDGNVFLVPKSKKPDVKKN
# Keap1/Nrf2, sequence (Q14145 whole entry): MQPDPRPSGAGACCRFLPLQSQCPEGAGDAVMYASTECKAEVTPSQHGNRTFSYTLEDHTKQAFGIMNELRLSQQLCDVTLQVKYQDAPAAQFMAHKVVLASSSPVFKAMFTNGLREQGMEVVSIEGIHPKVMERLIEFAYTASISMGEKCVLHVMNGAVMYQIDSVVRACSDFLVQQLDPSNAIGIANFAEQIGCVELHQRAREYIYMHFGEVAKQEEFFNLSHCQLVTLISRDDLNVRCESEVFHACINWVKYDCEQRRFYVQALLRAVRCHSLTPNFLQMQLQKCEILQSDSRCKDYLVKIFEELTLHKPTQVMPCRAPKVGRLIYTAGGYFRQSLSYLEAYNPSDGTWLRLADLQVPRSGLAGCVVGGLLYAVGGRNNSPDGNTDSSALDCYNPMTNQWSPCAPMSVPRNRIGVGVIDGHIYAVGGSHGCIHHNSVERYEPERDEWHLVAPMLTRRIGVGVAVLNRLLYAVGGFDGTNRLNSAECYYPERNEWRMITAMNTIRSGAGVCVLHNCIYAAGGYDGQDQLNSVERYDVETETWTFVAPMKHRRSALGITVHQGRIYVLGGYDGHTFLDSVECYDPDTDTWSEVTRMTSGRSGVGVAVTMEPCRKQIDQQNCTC
# T2 sequence (P10635 whole entry): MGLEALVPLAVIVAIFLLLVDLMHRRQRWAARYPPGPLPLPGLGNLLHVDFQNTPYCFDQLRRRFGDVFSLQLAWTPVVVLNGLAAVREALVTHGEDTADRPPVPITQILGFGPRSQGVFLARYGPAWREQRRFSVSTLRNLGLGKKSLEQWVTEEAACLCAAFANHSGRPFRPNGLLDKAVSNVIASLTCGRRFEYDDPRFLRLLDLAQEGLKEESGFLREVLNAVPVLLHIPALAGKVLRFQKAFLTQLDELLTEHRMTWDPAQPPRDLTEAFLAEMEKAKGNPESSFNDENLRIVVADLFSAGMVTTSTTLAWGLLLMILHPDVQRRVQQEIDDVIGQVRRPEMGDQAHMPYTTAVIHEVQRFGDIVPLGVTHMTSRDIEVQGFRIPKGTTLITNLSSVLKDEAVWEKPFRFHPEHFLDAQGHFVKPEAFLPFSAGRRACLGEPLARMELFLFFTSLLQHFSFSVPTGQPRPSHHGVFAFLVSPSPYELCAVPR
# Cytochrome P450 3A4, sequence (P08684 whole entry): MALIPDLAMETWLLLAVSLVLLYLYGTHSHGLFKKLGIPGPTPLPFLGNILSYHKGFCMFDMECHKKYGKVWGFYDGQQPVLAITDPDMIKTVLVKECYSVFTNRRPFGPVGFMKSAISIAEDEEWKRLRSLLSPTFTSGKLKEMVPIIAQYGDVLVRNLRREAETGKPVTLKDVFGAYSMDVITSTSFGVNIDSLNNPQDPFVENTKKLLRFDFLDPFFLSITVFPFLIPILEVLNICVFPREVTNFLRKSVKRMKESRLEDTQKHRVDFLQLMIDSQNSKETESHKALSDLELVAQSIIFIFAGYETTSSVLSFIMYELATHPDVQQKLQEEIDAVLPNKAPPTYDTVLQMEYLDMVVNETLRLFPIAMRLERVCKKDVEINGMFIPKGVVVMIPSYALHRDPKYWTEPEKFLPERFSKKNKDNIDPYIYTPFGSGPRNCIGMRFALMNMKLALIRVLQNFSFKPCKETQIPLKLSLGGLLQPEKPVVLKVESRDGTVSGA
# Cytochrome P450 2C9, sequence (P11712 whole entry): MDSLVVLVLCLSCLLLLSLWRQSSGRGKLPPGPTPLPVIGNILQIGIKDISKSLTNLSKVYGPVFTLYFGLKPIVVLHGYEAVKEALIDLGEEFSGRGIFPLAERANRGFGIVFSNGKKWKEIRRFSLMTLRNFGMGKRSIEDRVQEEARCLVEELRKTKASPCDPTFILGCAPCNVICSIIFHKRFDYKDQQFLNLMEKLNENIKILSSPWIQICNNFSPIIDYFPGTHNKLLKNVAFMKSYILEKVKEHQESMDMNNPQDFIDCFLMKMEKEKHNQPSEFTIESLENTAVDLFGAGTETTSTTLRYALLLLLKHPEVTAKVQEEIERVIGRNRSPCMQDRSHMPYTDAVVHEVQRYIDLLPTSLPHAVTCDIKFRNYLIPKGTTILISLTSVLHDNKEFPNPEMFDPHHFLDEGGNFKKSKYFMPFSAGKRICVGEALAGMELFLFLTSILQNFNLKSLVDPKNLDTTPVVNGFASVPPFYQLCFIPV
# Cytochrome P450 2C19, sequence (P33261 whole entry): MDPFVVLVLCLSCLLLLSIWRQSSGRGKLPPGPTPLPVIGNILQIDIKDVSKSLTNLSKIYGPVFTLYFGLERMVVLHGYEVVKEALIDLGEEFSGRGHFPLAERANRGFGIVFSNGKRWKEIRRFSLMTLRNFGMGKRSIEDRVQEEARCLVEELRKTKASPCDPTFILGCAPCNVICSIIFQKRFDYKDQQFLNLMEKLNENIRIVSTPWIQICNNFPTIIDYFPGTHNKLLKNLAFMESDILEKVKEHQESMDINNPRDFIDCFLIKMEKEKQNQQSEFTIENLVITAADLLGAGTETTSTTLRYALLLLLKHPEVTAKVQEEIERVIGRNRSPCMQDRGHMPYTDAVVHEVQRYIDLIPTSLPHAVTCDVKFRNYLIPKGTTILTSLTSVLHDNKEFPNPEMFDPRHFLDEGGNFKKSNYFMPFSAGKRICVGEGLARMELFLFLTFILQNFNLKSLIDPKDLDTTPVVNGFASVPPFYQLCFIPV
compound,measurement,setting,value
CC(C)OC(=O)/C(=C\C=C\c1ccccc1)NC(=O)c1ccccc1,AC50,Cytochrome P450 1A2,3.55 µM (inconclusive)
same,AC50,Cytochrome P450 2C9,2.82 µM (inconclusive)
same,AC50,Cytochrome P450 2D6 [1],inconclusive
CCOC(=O)C1C(=O)C=C(/C=C/c2ccccc2)CC1c1ccc(Cl)cc1 (centres undefined),AC50,Cytochrome P450 2D6 [2],7.08 µM (inconclusive)
same,AC50,Cytochrome P450 2C9,1.41 µM (inconclusive)
same,AC50,Cytochrome P450 3A4,inconclusive
C/C(=N\OC(=O)c1cccc(C(F)(F)F)c1)c1sc(-c2ccccc2)nc1C,CC50,[3],30.8 µM (active)
same,AC50,HeLa,174 µM (active)
CCOC(=O)c1ccc(NC(=O)CC2SCCNC2=O)cc1 (centres undefined),AC50,A-375 [4],> 35 µM (active)
same,AC50,A-375 [5],> 35 µM (active)
COc1ccc(C(=O)C[n+]2ccc3ccccc3c2C)cc1,EC50,[6],0.646 µM (active)
same,EC50,[7],< 0.1 µM (active)
same,EC50,[8],0.235 µM (active)
same,EC50,H4,> 120 µM (not active)
same,EC50,[9],0.402 µM (active)
same,EC50,[10],0.375 µM (active)
same,IC50,HEK293,> 67.5 µM (inactive)
same,IC50,[11],> 67.5 µM (inactive)
Cc1cc(C)c(-c2csc(NC(=O)/C=C/c3cccs3)n2)c(C)c1,EC50,[12],> 120 µM (not active)
same,EC50,[13],21.5 µM (active)
same,EC50,[14],9.05 µM (active)
same,IC50,Vero [15],23.2 µM (active)
same,CC50,Vero [16],> 25 µM (active)
C#CCn1c(S(=O)(=O)Cc2ccc(C)cc2)nc(-c2ccccc2)c1-c1ccccc1,IC50,Vero [15],3.84 µM (active)
same,CC50,Vero [16],22.6 µM (active)
S=C(Nc1ccc(Cl)cc1)NC1CC2CCCC(C1)N2C1CCCC1 (centres undefined),AC50,Cytochrome P450 2C19,22.4 µM (inconclusive)
same,AC50,Cytochrome P450 3A4,inconclusive
O=C(CSC(=S)N1CCCCC1)c1c(F)cccc1F,IC50,HEK293,> 67.5 µM (inactive)
same,IC50,[11],> 67.5 µM (inactive)
Cc1ccc(NC(=O)Nc2ccc3oc(C)nc3c2)cc1,EC50,[6],0.192 µM (active)
same,EC50,[8],< 0.1 µM (active)
same,EC50,H4,> 120 µM (not active)
same,EC50,[9],0.346 µM (active)
same,EC50,[10],0.216 µM (active)
same,AC50,HeLa,104 µM (active)
COc1cccc2c1C(=O)c1c(O)c3c(c(O)c1C2=O)C[C@@](O)(C(C)=O)C[C@@H]3O[C@H]1C[C@H](N)[C@H](O)[C@H](C)O1 [DAUNORUBICIN],IC50,[17],0.0102 µM (active)
same,IC50,[18],1.47 µM (active)
same,IC50,[19],0.118 µM (active)
same,IC50,[20],0.0509 µM (active)
same,IC50,[21],0.338 µM (active)
same,IC50,[22],0.0464 µM (active)
same,IC50,[23],0.648 µM (active)
same,IC50,[24],0.188 µM (active)
same,IC50,[25],0.0554 µM (active)
same,AC50,Cytochrome P450 1A2,31.6 µM (inconclusive)
same,AC50,Cytochrome P450 2D6 [1],inactive
CC(C)c1nnc(N2C(=O)C(O)=C(C(=O)c3cccs3)C2c2ccccc2)s1 (centres undefined),EC50,[26],33.9 µM (inconclusive)
same,EC50,[27],4.38 µM (inconclusive)
same,AC50,Keap1/Nrf2,13.4 µM (active)
